Assay results: patent US7767659B2, “Synthesis of naturally occurring ecteinascidins and related compounds” (Pharma Mar, S.A., priority 2002, dated 2010)

Key:
A-549 = experiment: cells; conditions: Homo sapiens, A549, 48 h; for GI50: read-out: A549 GI50; for CC50: read-out: A549 LC50; for IC (TGI): read-out: A549 TGI
Method: (§1) This form of the assay employs 96 well cell culture microplates of 9 mm diameter (Faircloth, 1988; Mosmann, 1983). Most of the cell lines are obtained from American Type Culture Collection (ATCC) derived from different human cancer types.
(§2) Cells are maintained in RPMI 1640 10% FBS, supplemented with 0.1 g/l penicillin and 0.1 g/l streptomycin sulfate and then incubated at 37° C., 5% CO2 and 98% humidity. For the experiments, cells were harvested from subconfluent cultures using trypsin and resuspended in fresh medium before plating.
(§3) Cells are seeded in 96 well microtiter plates, at 5×10^3 cells per well in aliquots of 195 μl medium, and they are allowed to attach to the plate surface by growing in drug free medium for 18 hours. Afterward, samples are added in aliquots of 5 μl in a ranging from 10 to 10^−8 μg/ml, dissolved in DMSO/EtOH/PBS (0.5:0.5:99). After 48 hours exposure, the antitumor effect are measured by the SRB methodology: cells are fixed by adding 50 μl of cold 50% (wt/vol) trichloroacetic acid (TCA) and incubating for 60 minutes at 4° C. Plates are washed with deionized water and dried. One hundred μl of SRB solution (0.4% wt/vol in 1% acetic acid) is added to each microtiter well and incubated for 10 minutes at room temperature. Unbound SRB is removed by washing with 1% acetic acid. Plates are air dried and bound stain is solubilzed with Tris buffer. Optical densities are read on a automated spectrophotometric plate reader at a single wavelength of 490 nm.
(§4) The values for mean +/− SD of data from triplicate wells are calculated. Some parameters for cellular responses can be calculated: GI=growth inhibition, TGI=total growth inhibition (cytostatic effect) and LC=cell killing (cytotoxic effect).

HT-29 = experiment: cells; conditions: Homo sapiens, HT-29, 48 h; for GI50: read-out: HT29 GI50; for CC50: read-out: HT29 LC50; for IC (TGI): read-out: HT29 TGI
Method: as §1, §2, §3, §4

LoVo = experiment: cells; conditions: Homo sapiens, LoVo, 48 h; for GI50: read-out: LOVO GI50; for CC50: read-out: LOVO LC50; for IC (TGI): read-out: LOVO TGI
Method: as §1, §2, §3, §4

DU-145 = experiment: Inhibition of cells growth by colorimetric assay (SRB); conditions: Homo sapiens, DU-145, 48 h; for GI50: read-out: DU145 GI50; for CC50: read-out: DU145 LC50; for IC (TGI): read-out: DU145 TGI
Method: as §1, §2, §3, §4

HeLa-APL = experiment: as above; conditions: Homo sapiens, 48 h; for GI50: read-out: HELA-APL GI50; for CC50: read-out: HELA-APL LC50; for IC (TGI): read-out: HELA-APL TGI
Method: as §1, §2, §3, §4

HeLa = experiment: as above; conditions: Homo sapiens, HeLa, 48 h; for GI50: read-out: HELA GI50; for CC50: read-out: HELA LC50; for IC (TGI): read-out: HELA TGI
Method: as §1, §2, §3, §4

IGROV-1 = experiment: as above; conditions: Homo sapiens, IGROV-1, 48 h; for GI50: read-out: IGROV GI50; for CC50: read-out: IGROV LC50; for IC (TGI): read-out: IGROV TGI
Method: as §1, §2, §3, §4

IGROV-ET = experiment: as above; conditions: Homo sapiens, 48 h; for GI50: read-out: IGROV-ET GI50; for CC50: read-out: IGROV-ET LC50; for IC (TGI): read-out: IGROV-ET TGI
Method: as §1, §2, §3, §4

K-562 = experiment: as above; conditions: Homo sapiens, K562, 48 h; for GI50: read-out: K562 GI50; for CC50: read-out: K562 LC50; for IC (TGI): read-out: K562 TGI
Method: as §1, §2, §3, §4

LNCaP = experiment: as above; conditions: Homo sapiens, LNCaP, 48 h; for GI50: read-out: LNCAP GI50; for CC50: read-out: LNCAP LC50; for IC (TGI): read-out: LNCAP TGI
Method: as §1, §2, §3, §4

LoVo-Dox = experiment: as above; conditions: Homo sapiens, 48 h; for GI50: read-out: LOVO-DOX GI50; for CC50: read-out: LOVO-DOX LC50; for IC (TGI): read-out: LOVO-DOX TGI
Method: as §1, §2, §3, §4

PANC-1 = experiment: as above; conditions: Homo sapiens, PANC-1, 48 h; for GI50: read-out: PANC-1 GI50; for CC50: read-out: PANC-1 LC50; for IC (TGI): read-out: PANC-1 TGI
Method: as §1, §2, §3, §4

SK-MEL-28 = experiment: as above; conditions: Homo sapiens, SK-MEL-28, 48 h; for GI50: read-out: MEL-28 GI50; for CC50: read-out: MEL-28 LC50; for IC (TGI): read-out: MEL-28 TGI
Method: as §1, §2, §3, §4

Row | Compound | GI50 (A-549) [nM] | CC50 (A-549) [nM] | IC (TGI) (A-549) [nM] | GI50 (HT-29) [nM] | CC50 (HT-29) [nM] | IC (TGI) (HT-29) [nM] | GI50 (LoVo) [nM] | CC50 (LoVo) [nM] | IC (TGI) (LoVo) [nM] | GI50 (DU-145) [nM] | CC50 (DU-145) [nM] | IC (TGI) (DU-145) [nM] | GI50 (HeLa-APL) [nM] | CC50 (HeLa-APL) [nM] | IC (TGI) (HeLa-APL) [nM] | GI50 (HeLa) [nM] | CC50 (HeLa) [nM] | IC (TGI) (HeLa) [nM] | GI50 (IGROV-1) [nM] | CC50 (IGROV-1) [nM] | other results
1 | C=CCN1[C@@H]2c3c(cc(C)c(OC)c3O)C[C@H]1[C@H](C#N)N1C2[C@@H]2SC[C@]3(NCCc4c3[nH]c3ccccc43)C(=O)OC[C@H]1c1c3c(c(C)c(OC(C)=O)c12)OCO3 (stereo partly drawn) [compound 55] | 68.4 | 1220 | 286 | 75.7 | 12700 | 1810 | 151 | 837 | 356 | 59 | 12700 | 247 | 111 | 915 | 323 | 148 | 887 | 363 | 69.2 | 1580 | IC (TGI) (IGROV-1): 271 nM; GI50 (IGROV-ET): 248 nM; CC50 (IGROV-ET): 4180 nM; IC (TGI) (IGROV-ET): 624 nM; GI50 (K-562): 58.4 nM; CC50 (K-562): 1040 nM; IC (TGI) (K-562): 272 nM; GI50 (LNCaP): 17.1 nM; CC50 (LNCaP): 75.7 nM; IC (TGI) (LNCaP): 36 nM; GI50 (LoVo-Dox): 333 nM; CC50 (LoVo-Dox): 12700 nM; IC (TGI) (LoVo-Dox): 1570 nM; GI50 (PANC-1): 148 nM; CC50 (PANC-1): 12700 nM; IC (TGI) (PANC-1): 1900 nM; GI50 (SK-MEL-28): 88.6 nM; CC50 (SK-MEL-28): 698 nM; IC (TGI) (SK-MEL-28): 265 nM
2 | COc1c(C)cc2c(c1O)[C@H]1N[C@@H](C2)[C@H](C#N)N2C1[C@@H]1SC[C@]3(NCCc4c3[nH]c3ccccc43)C(=O)OC[C@H]2c2c3c(c(C)c(OC(C)=O)c21)OCO3 (stereo partly drawn) [compound 59] | 15.9 | 273 | 48.5 | 3.83 | 4280 | 16 | 5.8 | 1190 | 23.3 | 4.09 | 1640 | 10.2 | 3.32 | 59.2 | 7.69 | 2.44 | 10.6 | 5.08 | 3.01 | 110 | IC (TGI) (IGROV-1): 7.33 nM; GI50 (IGROV-ET): 4.48 nM; CC50 (IGROV-ET): 3040 nM; IC (TGI) (IGROV-ET): 107 nM; GI50 (K-562): 1.8 nM; CC50 (K-562): 3290 nM; IC (TGI) (K-562): 9.83 nM; GI50 (LNCaP): 1.03 nM; CC50 (LNCaP): 6.43 nM; IC (TGI) (LNCaP): 2.67 nM; GI50 (LoVo-Dox): 123 nM; CC50 (LoVo-Dox): 3930 nM; IC (TGI) (LoVo-Dox): 709 nM; GI50 (PANC-1): 4.76 nM; CC50 (PANC-1): 3750 nM; IC (TGI) (PANC-1): 42.3 nM; GI50 (SK-MEL-28): 3.56 nM; CC50 (SK-MEL-28): 3040 nM; IC (TGI) (SK-MEL-28): 11 nM
3 | COc1c(C)cc2c(c1O)[C@H]1N[C@@H](C2)[C@H](C#N)N2C1[C@@H]1SCC(=O)C(=O)OC[C@H]2c2c3c(c(C)c(OC(C)=O)c21)OCO3 (stereo partly drawn) [compound 42] | 57.4 | 2370 | 147 | 39.7 | 16500 | 131 | 37.7 | 2930 | 72.6 | 37.4 | 247 | 82.5 | 34.6 | 130 | 67 | 28.1 | 139 | 62.5 | 28.6 | 153 | IC (TGI) (IGROV-1): 66.3 nM; GI50 (IGROV-ET): 280 nM; CC50 (IGROV-ET): 16500 nM; IC (TGI) (IGROV-ET): 1020 nM; GI50 (K-562): 17.8 nM; CC50 (K-562): 694 nM; IC (TGI) (K-562): 59.6 nM; GI50 (LNCaP): 5.96 nM; CC50 (LNCaP): 63.7 nM; IC (TGI) (LNCaP): 22.4 nM; GI50 (LoVo-Dox): 515 nM; CC50 (LoVo-Dox): 16500 nM; IC (TGI) (LoVo-Dox): 1440 nM; GI50 (PANC-1): 39 nM; CC50 (PANC-1): 5270 nM; IC (TGI) (PANC-1): 11.5 nM; GI50 (SK-MEL-28): 30.1 nM; CC50 (SK-MEL-28): 107 nM; IC (TGI) (SK-MEL-28): 56.8 nM
